{"source": "patent US8785460B2", "about": "“Tricyclic compounds and use thereof” (Takeda Pharmaceutical Company Limited, priority 2008, dated 2014)", "data": [{"molecular_target": "T1, human CRF1 receptor (Homo sapiens, UniProt P34998)", "T1 construct": "expressed in transfected cells; host or cells: CHO cells (membrane fraction)", "T1 sequence (P34998 24-415)": "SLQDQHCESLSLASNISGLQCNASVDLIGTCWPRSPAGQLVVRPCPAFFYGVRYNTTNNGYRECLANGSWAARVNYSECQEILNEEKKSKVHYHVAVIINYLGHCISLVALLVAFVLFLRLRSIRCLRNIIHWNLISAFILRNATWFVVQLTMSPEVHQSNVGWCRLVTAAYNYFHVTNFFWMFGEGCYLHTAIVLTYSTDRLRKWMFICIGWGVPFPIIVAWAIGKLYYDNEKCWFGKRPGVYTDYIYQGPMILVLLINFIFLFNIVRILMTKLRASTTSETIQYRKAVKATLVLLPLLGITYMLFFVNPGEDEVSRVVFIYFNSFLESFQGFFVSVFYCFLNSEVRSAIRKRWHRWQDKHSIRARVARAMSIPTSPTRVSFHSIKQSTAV", "assay": "Measurement of CRF Binding Inhibitory Rate (receptor binding experiment with 125I-CRF)", "settings": "human CRF1 receptor expressing CHO cellular membrane fraction, 50 pM 125I-CRF, room temperature 1.5 hr, 0.05 nM to 10 μM of compound; read-out: IC50 values (CRF binding inhibition)", "experimental": "Measurement of CRF Binding Inhibitory Rate\nA receptor binding experiment was carried out using a human CRF1 receptor expressing CHO cellular membrane fraction and ovine CRF, [^125I]-tyr^0(^125I-CRF). 1000 nM of a test compound was incubated with 1 μg of human CREF receptor expressing CHO cellular membrane fraction and 50 pM of ^125I-CRF in a binding assay buffer (50 mM Tris-HCl, 5 mM EDTA, 10 mM MgCl2, 0.05% CHAPS, 0.1% BSA, 0.5 mM PMSF, 0.1 μg/mL pepstatin, 20 μg/mL leupeptin, pH 7.5). In addition, for measuring nonspecific binding (NSB), 0.1 μM unlabelled human Urocortin was incubated with 5 μg of human CRE receptor expressing CHO cellular membrane fraction and 50 pM of ^125I-CRF in a binding assay buffer. After a binding reaction was carried out at room temperature for 1.5 hr, the membrane was entrapped on a glass filter (UniFilter plate GF-C/Perkin Elmer) by suction filtration using a cell harvester (Perkin Elmer), and washed with ice-cooled 50 mM Tris-HCl (pH 7.5). After drying the glass filter, a liquid scintillation cocktail (Microscinti 0, Perkin Elmer) was added, and the radioactivity of ^125I-CRF remaining on a glass filter was measured using Topcount (Perkin Elmer).\n(TB−SB)/(TB−NSB)×100 (SB: radioactivity when a compound is added, TB: maximum binding radioactivity, NSB: nonspecific binding radioactivity) were calculated to obtain binding inhibitory rates under the range of the presence from 0.05 nM to 10 μM of each compound. The IC50 values were calculated by using GraphPad Prism software.", "units": {"IC50": "nM"}, "values": [{"smiles": "CCC(OC(C)=O)c1ccc(Cl)c2nc3n(c12)CCCN3c1ccccc1Cl", "note": "(centres unmarked) [Example 253, 1-[9-Chloro-1-(2-chlorophenyl)-1,2,3,4-tetrahydropyrimido[1,2-a]benzimidazol-6-yl]propyl acetate]", "IC50": "< 1000"}, {"smiles": "COC(=O)c1ccc(Cl)c2nc3n(c12)CCCCN3c1ccc(OC)cc1Cl", "note": "[Example 330, Methyl 10-chloro-1-(2-chloro-4-methoxyphenyl)-2,3,4,5-tetrahydro-1H-[1,3]diazepino[1,2-a]benzimidazole-7-carboxylate]", "IC50": "< 1000"}, {"smiles": "CCC(CC#N)c1ccc(Cl)c2nc3n(c12)CCCN3c1ccc(Cl)cc1Cl", "note": "(centres unmarked) [Example 316, 3-[9-Chloro-1-(2,4-dichlorophenyl)-1,2,3,4-tetrahydropyrimido[1,2-a]benzimidazol-6-yl]pentanenitrile]", "IC50": "< 1000"}, {"smiles": "C=CCCC(O)c1ccc(Cl)c2nc3n(c12)CCCN3c1c(C)cc(Cl)cc1Cl", "note": "(centres unmarked) [Example 381, 1-[9-Chloro-1-(2,4-dichloro-6-methylphenyl)-1,2,3,4-tetrahydropyrimido[1,2-a]benzimidazol-6-yl]pent-4-en-1-ol]", "IC50": "< 1000"}, {"smiles": "Cc1cc(S(C)(=O)=O)ccc1N1CCCn2c1nc1c(Cl)ccc(C(OC(F)F)C(F)(F)F)c12", "note": "(centres unmarked) [Example 477, 9-Chloro-6-[1-(difluoromethoxy)-2,2,2-trifluoroethyl]-1-[2-methyl-4-(methylsulfonyl)phenyl]-1,2,3,4-tetrahydropyrimido[1,2-a]benzimidazole]", "IC50": "< 1000"}, {"smiles": "CCN(CC)c1cccc2nc3n(c12)CC(N=[N+]=[N-])CCN3c1ccc(Cl)cc1Cl", "note": "(centres unmarked) [Example 361, 4-Azido-1-(2,4-dichlorophenyl)-N,N-diethyl-2,3,4,5-tetrahydro-1H-[1,3]diazepino[1,2-a]benzimidazol-7-amine]", "IC50": "< 1000"}, {"smiles": "CCC(CC)c1ccc(Cl)c2nc3n(c12)CCCCN3c1ncc(N)cc1C", "note": "[Example 65, 6-[10-Chloro-7-(1-ethylpropyl)-2,3,4,5-tetrahydro-1H-[1,3]diazepino[1,2-a]benzimidazol-1-yl]-5-methylpyridin-3-amine]", "IC50": "< 1000"}, {"smiles": "CCC(C(=O)C(F)(F)F)c1ccc(Cl)c2nc3n(c12)CCCN3c1ccc(Cl)cc1Cl", "note": "(centres unmarked) [Example 318]", "IC50": "< 1000"}, {"smiles": "CCC(c1ccc(Cl)c2nc3n(c12)CCCN3c1ccc(OC)nc1C)C(F)F", "note": "(centres unmarked) [Example 303, 9-Chloro-6-[1-(difluoromethyl)propyl]-1-(6-methoxy-2-methylpyridin-3-yl)-1,2,3,4-tetrahydropyrimido[1,2-a]benzimidazole]", "IC50": "< 1000"}, {"smiles": "COc1ccc(N2CCCCn3c2nc2c(Cl)ccc(CO)c23)c(Cl)c1", "note": "[Example 331, [10-Chloro-1-(2-chloro-4-methoxyphenyl)-2,3,4,5-tetrahydro-1H-[1,3]diazepino[1,2-a]benzimidazol-7-yl]methanol]", "IC50": "< 1000"}, {"smiles": "NC(c1ccc(Cl)c2nc3n(c12)CCCN3c1c(Cl)cc(Cl)cc1Cl)C(F)(F)F", "note": "(centres unmarked) [Example 414, 1-[9-Chloro-1-(2,4,6-trichlorophenyl)-1,2,3,4-tetrahydropyrimido[1,2-a]benzimidazol-6-yl]-2,2,2-trifluoroethanamine]", "IC50": "< 1000"}, {"smiles": "CCC(CC)c1ccc(Cl)c2nc3n(c12)CCCCN3c1ccc(OC(F)(F)F)cc1C=O", "note": "[Example 41, 2-[10-Chloro-7-(1-ethylpropyl)-2,3,4,5-tetrahydro-1H-[1,3]diazepino[1,2-a]benzimidazol-1-yl]-5-(trifluoromethoxy)benzaldehyde]", "IC50": "< 1000"}, {"smiles": "COc1ccc(N2CCCn3c2nc2c(Cl)ccc(C(O)(C4CC4)C4CC4)c23)c(Cl)c1", "note": "[Example 465, [9-Chloro-1-(2-chloro-4-methoxyphenyl)-1,2,3,4-tetrahydropyrimido[1,2-a]benzimidazol-6-yl](dicyclopropyl)methanol]", "IC50": "< 1000"}, {"smiles": "CCOC(c1ccc(Cl)c2nc3n(c12)CCCN3c1ccc(OC)cc1Cl)C(F)(F)F", "note": "(centres unmarked) [Example 470]", "IC50": "< 1000"}, {"smiles": "CCC(c1ccc(Cl)c2nc3n(c12)CCCN3c1ccc(Cl)cc1Cl)C(O)C(F)(F)F", "note": "(centres unmarked) [Example 317, 3-[9-chloro-1-(2,4-dichlorophenyl)-1,2,3,4-tetrahydropyrimido[1,2-a]benzimidazol-6-yl]-1,1,1-trifluoropentan-2-ol]", "IC50": "< 1000"}, {"smiles": "FC(F)COC(c1ccc(Cl)c2nc3n(c12)CCCN3c1ccc(Cl)cc1Cl)C1CC1", "note": "(centres unmarked) [Example 464, 9-Chloro-6-[cyclopropyl(2,2-difluoroethoxy)methyl]-1-(2,4-dichlorophenyl)-1,2,3,4-tetrahydropyrimido[1,2-a]benzimidazole]", "IC50": "< 1000"}, {"smiles": "CCC(CC)c1ccc(Cl)c2nc3n(c12)CCCCN3c1cccnc1OC", "note": "[Example 55, 10-Chloro-7-(1-ethylpropyl)-1-(2-methoxypyridin-3-yl)-2,3,4,5-tetrahydro-1H-[1,3]diazepino[1,2-a]benzimidazole]", "IC50": "< 1000"}, {"smiles": "CCN(CC)c1cccc2nc3n(c12)CCN=C3c1ccc(Cl)cc1Cl", "note": "[Example 507, 1-(2,4-Dichlorophenyl)-N,N-diethyl-3,4-dihydropyrazino[1,2-a]benzimidazol-6-amine]", "IC50": "< 1000"}, {"smiles": "CCC(c1ccc(Cl)c2nc3n(c12)CCCN3c1ccc(Cl)cc1Cl)C(C)O", "note": "(centres unmarked) [Example 404, 3-[9-Chloro-1-(2,4-dichlorophenyl)-1,2,3,4-tetrahydropyrimido[1,2-a]benzimidazol-6-yl]pentan-2-ol]", "IC50": "< 1000"}, {"smiles": "CCC(OC(C)C)c1ccc(Cl)c2nc3n(c12)CCCN3c1ccc(Cl)cc1Cl", "note": "(centres unmarked) [Example 237, 9-Chloro-1-(2,4-dichlorophenyl)-6-[1-(1-methylethoxy)propyl]-1,2,3,4-tetrahydropyrimido[1,2-a]benzimidazole]", "IC50": "< 1000"}, {"smiles": "CCN(CC)c1cc(F)cc2nc3n(c12)CCCOC3c1ccc(Cl)cc1Cl", "note": "(centres unmarked) [Example 494, 1-(2,4-Dichlorophenyl)-N,N-diethyl-9-fluoro-4,5-dihydro-1H,3H-[1,4]oxazepino[4,3-a]benzimidazol-7-amine]", "IC50": "< 1000"}, {"smiles": "CCC(CC)c1ccc(Cl)c2nc3n(c12)CCN3c1ccccc1Cl", "note": "[Example 13, 8-Chloro-1-(2-chlorophenyl)-5-(1-ethylpropyl)-2,3-dihydro-1H-imidazo[1,2-a]benzimidazole]", "IC50": "< 1000"}, {"smiles": "CCC(OC(C)=O)c1ccc(Cl)c2nc3n(c12)CCCN3c1ccc(Cl)cc1Cl", "note": "(single isomer, unassigned; (-)) [Example 239, (−)-1-[9-Chloro-1-(2,4-dichlorophenyl)-1,2,3,4-tetrahydropyrimido[1,2-a]benzimidazol-6-yl]propyl acetate]", "IC50": "< 1000"}, {"smiles": "C=CCC(O)c1ccc(Cl)c2nc3n(c12)CCCN3c1c(C)cc(Cl)cc1Cl", "note": "(centres unmarked) [Example 383, 1-[9-Chloro-1-(2,4-dichloro-6-methylphenyl)-1,2,3,4-tetrahydropyrimido[1,2-a]benzimidazol-6-yl]but-3-en-1-ol]", "IC50": "< 1000"}, {"smiles": "CCC(CC)c1ccc(Cl)c2nc3n(c12)CCN3c1ncc(C(F)(F)F)cc1Cl", "note": "[Example 225, 8-Chloro-1-[3-chloro-5-(trifluoromethyl)pyridin-2-yl]-5-(1-ethylpropyl)-2,3-dihydro-1H-imidazo[1,2-a]benzimidazole]", "IC50": "< 1000"}, {"smiles": "Cc1nc(OC(C)C)ccc1N1CCCn2c1nc1c(Cl)ccc(C(OC(F)F)C(F)(F)F)c12", "note": "(centres unmarked) [Example 288, 9-Chloro-6-[1-(difluoromethoxy)-2,2,2-trifluoroethyl]-1-[2-methyl-6-(1-methylethoxy)pyridin-3-yl]-1,2,3,4-tetrahydropyrimido[1,2-a]benzimidazole]", "IC50": "< 1000"}]}]}
